Here are results for 2 molecules from paper PMC3387330 (Amino acids, 2012).

The data set can be described thus: Metabolic stability of parent peptide in rat hepatocytes. The note with it: male, Sprague-Dawley.

What is called half-life is the time needed for the level to fall by half in the phase considered. For the molecule `CSCC[C@H](NC(=O)[C@H](CC(C)C)NC(=O)[C@H](Cc1c[nH]cn1)NC(=O)CNC(=O)[C@@H](NC(=O)[C@H](C)NC(=O)[C@H](Cc1c[nH]c2ccccc12)NC(=O)[C@H](CCC(N)=O)NC(=O)CCCCCNC(=O)C(C)F)C(C)C)C(N)=O` (some centres unmarked) [FP-BBN, FP-aca-QWAVGHLM-NH2], the half-life at 10 µM is about 25 min.
Next, `CSCC[C@H](NC(=O)[C@H](CC(C)C)NC(=O)[C@H](Cc1c[nH]cn1)NC(=O)CNC(=O)[C@@H](NC(=O)[C@H](C)NC(=O)[C@H](Cc1c[nH]c2ccccc12)NC(=O)[C@H](CCC(N)=O)NC(=O)CCCCCNC(=O)c1ccc(F)cc1)C(C)C)C(N)=O` [FB-BBN, FB-aca-QWAVGHLM-NH2]: about 3.8 min.
